Counter-ions that a name gives are not always drawn.
Tests used:
[1] = biological target: T1, α4β1 integrin (Jurkat T-cell adhesion to IL-1 stimulated endothelial cell monolayers) (Homo sapiens, UniProt P05556+P13612); assay: Jurkat-endothelial cell adhesion assay (Jurkat EC); type: cell-based; details: Jurkat cells on IL-1 stimulated human umbilical vein endothelial cells; read-out: JK/EC (Jurkat EC Assay IC50 value range)
T1 construct: a T-cell line, Jurkat, known to express the α4β1 integrin; host or cells: Jurkat T-cell line
In short: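 Adhesion was expressed as percent of compound-free fluorescence after 20 min at 37° C (following 5 min settling on ice) of BCECF-loaded Jurkat T cells on washed HUVEC monolayers. The endothelium, passage 6 or lower, had received 0.1 ng/ml recombinant IL-1 for 4 hr at 37° C; compound was premixed with the T cells, typically at 100, 20, 5 and 1.25 μM.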

[2] = biological target: T2, α4β1 integrin (Jurkat cell adhesion to immobilized CS-1 derived peptide CLHPGEILDVPST) (Homo sapiens, UniProt P05556+P13612); assay: Jurkat-CS-1 assay; type: cell-based; details: Jurkat cells on CS-1 peptide coated plates; read-out: JK/CS-1 (Jurkat CS-1 Assay IC50 value range)
T2 construct: 100 μl of Jurkat cells (2.5×10^6 cells/ml) in DMEM plus BSA; host or cells: Jurkat T-cell line
In short: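 CS-1 peptide was SPDP-crosslinked onto HSA-coated plates and blocked with BSA. Jurkat cells (2.5×10^6 cells/ml) in DMEM/BSA were mixed with compound, generally at 100, 20, 5 and 1.25 μM, and allowed to adhere for 1 hr at 37° C. Bound cells were fixed, stained with toluidine blue and quantified by OD590.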

T2 sequence (P13612 34-1032): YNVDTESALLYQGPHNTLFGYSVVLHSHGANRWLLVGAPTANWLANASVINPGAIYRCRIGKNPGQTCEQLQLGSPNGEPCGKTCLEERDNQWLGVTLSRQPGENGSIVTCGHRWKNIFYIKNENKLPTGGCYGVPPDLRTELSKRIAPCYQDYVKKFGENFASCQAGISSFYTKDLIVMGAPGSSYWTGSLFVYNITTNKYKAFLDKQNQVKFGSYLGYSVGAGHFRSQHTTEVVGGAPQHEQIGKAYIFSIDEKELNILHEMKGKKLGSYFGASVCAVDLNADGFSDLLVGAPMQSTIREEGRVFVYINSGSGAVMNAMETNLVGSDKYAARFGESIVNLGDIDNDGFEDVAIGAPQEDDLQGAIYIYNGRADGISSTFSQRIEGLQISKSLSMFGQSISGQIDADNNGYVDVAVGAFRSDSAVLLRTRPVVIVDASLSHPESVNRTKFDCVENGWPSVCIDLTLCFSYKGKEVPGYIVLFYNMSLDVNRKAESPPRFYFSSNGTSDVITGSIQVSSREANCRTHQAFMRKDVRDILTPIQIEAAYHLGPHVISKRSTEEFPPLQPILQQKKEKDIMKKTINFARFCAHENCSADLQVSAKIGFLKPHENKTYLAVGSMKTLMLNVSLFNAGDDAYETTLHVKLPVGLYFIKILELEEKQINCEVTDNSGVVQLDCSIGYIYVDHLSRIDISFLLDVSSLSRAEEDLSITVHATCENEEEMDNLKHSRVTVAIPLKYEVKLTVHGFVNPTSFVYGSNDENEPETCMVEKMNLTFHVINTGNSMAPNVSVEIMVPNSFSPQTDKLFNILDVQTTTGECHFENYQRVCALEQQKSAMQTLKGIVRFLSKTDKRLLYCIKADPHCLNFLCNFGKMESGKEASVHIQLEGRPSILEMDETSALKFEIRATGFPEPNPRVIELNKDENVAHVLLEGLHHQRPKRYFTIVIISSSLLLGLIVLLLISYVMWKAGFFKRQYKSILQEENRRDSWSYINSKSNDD
T2 sequence (P05556 21-798): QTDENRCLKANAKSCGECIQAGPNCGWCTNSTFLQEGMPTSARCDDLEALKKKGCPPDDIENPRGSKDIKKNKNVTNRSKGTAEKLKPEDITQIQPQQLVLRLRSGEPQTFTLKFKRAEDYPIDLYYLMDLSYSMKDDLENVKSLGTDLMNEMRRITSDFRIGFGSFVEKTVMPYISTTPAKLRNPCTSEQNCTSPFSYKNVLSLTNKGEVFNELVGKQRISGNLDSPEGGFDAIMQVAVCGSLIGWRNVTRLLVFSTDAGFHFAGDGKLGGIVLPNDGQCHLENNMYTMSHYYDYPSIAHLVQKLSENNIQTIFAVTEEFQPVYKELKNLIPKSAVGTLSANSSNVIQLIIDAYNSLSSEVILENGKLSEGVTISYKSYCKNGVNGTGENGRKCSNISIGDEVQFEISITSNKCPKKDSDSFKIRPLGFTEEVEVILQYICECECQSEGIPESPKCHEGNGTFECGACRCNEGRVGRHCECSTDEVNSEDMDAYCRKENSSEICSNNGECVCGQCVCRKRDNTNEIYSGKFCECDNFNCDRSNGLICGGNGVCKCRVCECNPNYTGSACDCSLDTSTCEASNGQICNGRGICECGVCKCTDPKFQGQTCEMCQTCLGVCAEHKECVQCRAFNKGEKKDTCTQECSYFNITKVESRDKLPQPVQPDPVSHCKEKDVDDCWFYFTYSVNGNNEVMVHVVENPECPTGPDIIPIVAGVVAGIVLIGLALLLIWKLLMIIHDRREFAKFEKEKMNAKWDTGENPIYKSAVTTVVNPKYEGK
T1 sequence (P13612 34-1032): as the sequence (P13612 34-1032) above
T1 sequence (P05556 21-798): as the sequence (P05556 21-798) above

Row | Compound | IC50 [1] | IC50 [2]
1 | COC(=O)CCCC(=O)N1CSC[C@@H]1C(=O)N[C@@H](Cc1ccc(NC(=O)c2c(Cl)cccc2Cl)cc1)C(=O)O (relative stereo) [Example 151, [S-(R*,R*)]-4-[[[1-Carboxy-2-[4-[(2,6-dichlorobenzoyl)amino]phenyl]ethyl]amino]carbonyl]-δ-oxo-3-thiazoidinepentanoic Acid Methyl Ester] | ≤ 0.25 µM | ≤ 0.05 µM
2 | O=C(O)[C@H](Cc1ccc(OCc2c(Cl)cccc2Cl)cc1)NC(=O)[C@H]1CSCN1C(=O)OCCN1CCCCC1 (relative stereo) [Example 152, [S-(R*,R*)]-4-[[[1-Carboxy-2-[4-[(2,6-dichlorophenyl)methoxy]phenyl]ethyl]amino]carbonyl]-3-thiazolidinecarboxylic Acid 3-[2-(1-Piperidinyl)ethyl]ester] | ≤ 0.25 µM | ≤ 0.05 µM
3 | CCOC(=O)N1[C@@H](C(=O)N[C@@H](Cc2ccc(OCc3c(Cl)cccc3Cl)cc2)C(=O)O)CSC12CCN(C)CC2 (relative stereo) [Example 155, [S-(R*,R*)]-3-[[[1-Carboxy-2-[4-[(2,6-dichlorophenyl)methoxy]phenyl]ethyl]amino]carbonyl]-8-methyl-1-thia-4,8-diazaspiro[4.5]decane-4-carboxylic Acid 4-Ethyl Ester] | ≥ 1 µM | ≥ 0.75 µM
4 | O=C(O)CCC(=O)N1CCCCC[C@H]1C(=O)N[C@@H](Cc1ccc(NC(=O)c2c(Cl)cccc2Cl)cc1)C(=O)O (relative stereo) [Example 157, [S-(R*,R*)]-2-[[[1-Carboxy-2-[4-[(2,6-dichlorobenzoyl)amino]phenyl]ethyl]amino]carbonyl]-hexahydro-γ-oxo-1H-azepine-1-butanoic Acid] | ≤ 0.25 µM | 0.05 to 0.75 µM
5 | CCOC(=O)N1[C@@H](C(=O)N[C@@H](Cc2ccc(OCc3c(Cl)cccc3Cl)cc2)C(=O)O)CSC12CCCC2 (relative stereo) [Example 161, [S-(R*,R*)]-3-[[[1Carboxy-2-[4-[(2,6-dichlorophenyl)methoxy]phenylethyl]amino]carbonyl]-1-thia-4-azapiro[4.4]nonane-4-carboxylic Acid 4-Ethyl Ester] | ≥ 1 µM | ≥ 0.75 µM
6 | CC(c1ccccc1)N1C(C(=O)O)CC1C(=O)NC(Cc1ccc(NC(=O)c2c(Cl)cccc2Cl)cc1)C(=O)O (single isomer, unassigned) [Example 133] | ≥ 1 µM | ≥ 0.75 µM
7 | CC(c1ccccc1)N1C(C(=O)O)CC1C(=O)NC(Cc1ccc(NC(=O)c2c(Cl)cccc2Cl)cc1)C(=O)O (single isomer, unassigned) [Example 139] | ≥ 1 µM | 0.05 to 0.75 µM
8 | CC(C)(C)OC(=O)N1CSC[C@H]1C(=O)N[C@@H](Cc1ccc(NC(=O)c2c(Cl)cccc2Cl)cc1)C(=O)O (stereo in doubt) [Example 14, [R-(R*,S*)]-4-[[[1-Carboxy-2-[4-[(2,6-dichlorobenzoyl)amino]phenyl]ethyl]amino]carbonyl]-3-thiazolidinecarboxylic Acid 3-(1,1-Dimethylethyl)ester] | 0.25 to 1 µM | 0.05 to 0.75 µM
9 | CC(C)(C)OC(=O)N1CSC[C@@H]1C(=O)N[C@H](Cc1ccc(NC(=O)c2c(Cl)cccc2Cl)cc1)C(=O)O (stereo in doubt) [Example 27, [S-(R*,S*)]-4-[[[1-Carboxy-2-[4-[(2,6-dichlorobenzoyl)amino]phenyl]ethyl]amino]carbonyl]-3-thiazolidinecarboxylic Acid 3-(1,1-Dimethylethyl)ester] | ≥ 1 µM | ≥ 0.75 µM
10 | O=C(O)CCC(=O)N1CCSCC1C(=O)N[C@@H](Cc1ccc(OCc2c(Cl)cccc2Cl)cc1)C(=O)O (stereo in doubt) [Example 105, [R-(R*,S*)]-3-[[[1-Carboxy-2-[4-[(2,6-dichlorophenyl)methoxy]phenyl]ethyl]amino]carbonyl]-γ-oxo-4-thiomorpholinebutanoic Acid] | ≥ 1 µM | 0.05 to 0.75 µM
11 | CCN(CC)C(=O)N1CSC[C@@H]1C(=O)N[C@@H](Cc1ccc(NC(=O)c2c(Cl)cccc2Cl)cc1)C(=O)OC [Example 7, 4-[(2,6-Dichlorobenzoyl)amino]-N-[[(4S)-3-[(diethylamino)carbonyl]-4-thiazolidinyl]carbonyl]-L-phenylalanine Methyl Ester] | ≥ 1 µM | 0.05 to 0.75 µM
12 | O=C(Nc1ccc(C[C@H](NC(=O)[C@H]2CSCN2)C(=O)O)cc1)c1c(Cl)cccc1Cl [Example 11, 4-[(2,6-Dichlorobenzoyl)amino]-N-[[(4S)-4-thiazolidinyl]carbonyl]-L-phenylalanine Monohydrochloride Salt] | ≥ 1 µM | 0.05 to 0.75 µM
13 | O=C(Nc1ccc(C[C@H](NC(=O)[C@H]2CSCN2S(=O)(=O)c2ccc(C(F)(F)F)cn2)C(=O)O)cc1)c1c(Cl)cccc1Cl [Example 45] | 0.25 to 1 µM | 0.05 to 0.75 µM
14 | COC(=O)[C@H](Cc1ccc(OCc2c(Cl)cccc2Cl)cc1)NC(=O)[C@H]1CSCN1S(C)(=O)=O [Example 50, O-[(2,6-Dichlorophenyl)methyl]-N-[[(4S)-3-(methylsulfonyl)-4-thiazolidinyl]carbonyl]-L-tyrosine Methyl Ester] | ≥ 1 µM | 0.05 to 0.75 µM

More lines, now with the values ahead:

Row | IC50 [1] | IC50 [2] | Compound
15 | ≥ 1 µM | ≥ 0.75 µM | COC(=O)[C@H](Cc1ccc(NC(=O)c2c(Cl)cccc2Cl)cc1)NC(=O)[C@@H]1CSCN1C(=O)OC(C)(C)C (stereo in doubt) [Example 13, [R-(R*,S*)]-4-[[[1-[[4-[(2,6-Dichlorobenzoyl)amino]phenyl]methyl]-2-methoxy-2-oxoethyl]amino]carbonyl]-3-thiazolidinecarboxylic Acid 3-(1,1-Dimethylethyl)ester]
16 | ≥ 1 µM | ≥ 0.75 µM | COC(=O)[C@@H](Cc1ccc(NC(=O)c2c(Cl)cccc2Cl)cc1)NC(=O)[C@H]1CSCN1C(=O)OC(C)(C)C (stereo in doubt) [Example 26, [S-(R*,S*)]-4-[[[1-[4-[(2,6-Dichlorobenzoyl)amino]phenyl]methyl]-2-methoxy-2-oxoethyl]amino]carbonyl]-3-thiazolidinecarboxylic Acid 3-1,1-Dimethylethyl)ester]
17 | ≤ 0.25 µM | 0.05 to 0.75 µM | COC(=O)[C@H](Cc1ccc(NC(=O)c2c(Cl)cccc2Cl)cc1)NC(=O)[C@H]1CSCN1S(C)(=O)=O [Example 2, 4-[(2,6-Dichlorobenzoyl)amino]-N-[[(4S)-3-(methylsulfonyl)-4-thiazolidinyl]carbonyl]-L-phenylalanine Methyl Ester]
18 | ≤ 0.25 µM | ≤ 0.05 µM | CS(=O)(=O)N1CSC[C@@H]1C(=O)N[C@@H](Cc1ccc(NC(=O)c2c(Cl)cccc2Cl)cc1)C(=O)O [Example 3, 4-[(2,6-Dichlorobenzoyl)amino]-N-[[(4S)-3-(methylsulfonyl)-4-thiazolidinyl]carbonyl]-L-phenylalanine]
19 | ≥ 1 µM | ≥ 0.75 µM | COC(=O)[C@H](Cc1ccc(NC(=O)c2c(Cl)cccc2Cl)cc1)NC(=O)[C@H]1CSCN1C(=O)NC(C)(C)C [Example 6, 4-[(2,6-Dichlorobenzoyl)amino]-N-[[(4S)-3-[((1,1-dimethylethyl)amino)carbonyl]-4-thiazolidinyl]carbonyl]-L-phenylalanine Methyl Ester]
20 | 0.25 to 1 µM | 0.05 to 0.75 µM | CCS(=O)(=O)N1CSC[C@@H]1C(=O)N[C@@H](Cc1ccc(NC(=O)c2c(Cl)cccc2Cl)cc1)C(=O)OC [Example 42]
21 | ≤ 0.25 µM | ≤ 0.05 µM | CCS(=O)(=O)N1CSC[C@@H]1C(=O)N[C@@H](Cc1ccc(NC(=O)c2c(Cl)cccc2Cl)cc1)C(=O)O [Example 43]
22 | ≥ 1 µM | ≥ 0.75 µM | COC(=O)[C@H](Cc1ccc(NC(=O)c2c(Cl)cccc2Cl)cc1)NC(=O)[C@H]1CSCN1S(=O)(=O)c1ccc(C(F)(F)F)cn1 [Example 44, 4-[(2,6-Dichlorobenzoyl)amino]-N-[[(4S)-3-[[5-(trifluoromethyl)-2-pyridinyl]sulfonyl]-4-thiazolidinyl]carbonyl]-L-phenylalanine Methyl Ester]
23 | ≥ 1 µM | ≥ 0.75 µM | COC(=O)[C@H](Cc1ccc(NC(=O)c2c(Cl)cccc2Cl)cc1)NC(=O)[C@H]1CSCN1S(=O)(=O)c1ccccc1 [Example 46, 4-[(2,6-Dichlorobenzoyl)amino]-N-[[(4S)-3-(phenylsulfonyl)-4-thiazolidinyl]carbonyl]-L-phenylalanine Methyl Ester]
24 | ≤ 0.25 µM | ≤ 0.05 µM | O=C(Nc1ccc(C[C@H](NC(=O)[C@H]2CSCN2S(=O)(=O)c2ccccc2)C(=O)O)cc1)c1c(Cl)cccc1Cl [Example 47]
25 | ≥ 1 µM | ≥ 0.75 µM | COC(=O)[C@H](Cc1ccc(NC(=O)c2c(Cl)cccc2Cl)cc1)NC(=O)[C@H]1CSCN1S(=O)(=O)c1cccc2c(N(C)C)cccc12 [Example 48, 4-[(2,6-Dichlorobenzoyl)amino]-N-[[(4S)-3-[[5-(dimethylamino)-1-naphthalenyl]sulfonyl]-4-thiazolidinyl]carbonyl]-L-phenylalanine Methyl Ester]
26 | ≥ 1 µM | ≥ 0.75 µM | CN(C)c1cccc2c(S(=O)(=O)N3CSC[C@@H]3C(=O)N[C@@H](Cc3ccc(NC(=O)c4c(Cl)cccc4Cl)cc3)C(=O)O)cccc12 [Example 49, 4-[(2,6-Dichlorobenzoyl)amino]-N-[[(4S)-3-[[5-(dimethylamino)-1-naphthalenyl]sulfonyl]-4-thiazolidinyl]carbonyl]-L-phenylalanine]
